Assay results as given in patent US5439902A, “14α, 16α-ethanoand 14α, 16α-etheno-estratrienes” (Schering Aktiengesellschaft, priority 1991, dated 1995).

Key:
vaginal epithelium = assay: Allen-Doisy test (vaginal smears, threshold at which 50% of the animals reach stage 3); type: in vivo, ovariectomized rats; conditions: for Allen-Doisy Test p.o. [ED50] / Allen-Doisy Test s.c. [ED50]: ovariectomized rats, one-time administration d1, smears d3-d5
Method: In the Allen-Doisy test, an evaluation of vaginal smears in ovariectomized rats is performed on days 3-5 (d3-d5) after the one-time administration on day 1 (d1) of the test substance. The following cycle stages are distinguished:
1=diestrus (leukocytes and nucleated epithelial cells),
2=proestrus (nucleated epithelial cells),
3=estrus (denucleated horny plaques),
4=metestrus (denucleated horny plaques, leukocytes, epithelial cells).
After oral or subcutaneous administration, estrogenically active substances result in the proliferation of the vaginal epithelium and the hornification of superficial cell layers. As a threshold value, that amount of an estrogen is indicated in which 50% of the animals reach stage 3. Further, estrogens cause an increase of the uterus weight.

Estrogen-receptor = Estrogen-receptor test (KF); type: binding; conditions: estradiol = 1.0

SMILES: C[C@]12CC[C@@H]3c4ccc(O)cc4CC[C@H]3[C@@]13CC[C@H](C3)[C@H]2O [14α,16α-ethano-estra-1,3,5(10)-triene-3,17α-diol]
- Allen-Doisy Test p.o. [ED50] (vaginal epithelium): 3-10 μg/animal/day
- threshold value (50% of the animals reach stage 3) (vaginal epithelium; s.c., rat, FIG. 1, threshold already exceeded after only 0.3 μg): < 0.3 µg
- Allen-Doisy Test s.c. [ED50] (vaginal epithelium; s.c.): 0.1-0.3 μg/animal/day
- Estrogen-receptor test (KF) (Estrogen-receptor): 0.5

SMILES: C[C@]12CC[C@@H]3c4ccc(O)cc4CC[C@H]3[C@@]13CC[C@H](C3)[C@@H]2O [14α,16α-ethano-estra-1,3,5(10)-triene-3,17β-diol]
- Allen-Doisy Test p.o. [ED50] (vaginal epithelium): 1.0 μg/animal/day
- Allen-Doisy Test s.c. [ED50] (vaginal epithelium; s.c.): 0.1-0.3 μg/animal/day
- Estrogen-receptor test (KF) (Estrogen-receptor): 1.0

SMILES: C[C@]12CC[C@@H]3c4ccc(O)cc4CC[C@H]3[C@@]13C=C[C@H](C3)[C@H]2O [14α,16α-etheno-estra-1,3,5(10)-triene-3,17α-diol]
- Estrogen-receptor test (KF) (Estrogen-receptor): 1.5

SMILES: C[C@]12CC[C@@H]3c4ccc(O)cc4CC[C@H]3[C@@H]1CC[C@H]2O [17α-Estradiol, reference compound]
- Estrogen-receptor test (KF) (Estrogen-receptor): 46.0

SMILES: C[C@]12CC[C@@H]3c4ccc(O)cc4CC[C@H]3[C@@H]1CC[C@@H]2O [Estradiol, reference compound]
- Estrogen-receptor test (KF) (Estrogen-receptor): 1.0
